Data reported in the CheMixHub viscosity set.
± gives the uncertainty stated by the source.

Assay: xn = mol fraction of the nth substance listed

S=C=S + c1ccccc1
298.15 K, 101 kPa
Details	viscosity [mPa·s]
x2 = 0.08675	0.376 ± 0.005
x2 = 0.3427	0.446 ± 0.006
x2 = 0.7541	0.544 ± 0.007

CCC(=O)c1ccccc1 + CN(C)c1ccccc1
viscosity [mPa·s], 101 kPa
Details	303.15 K	308.15 K
x2 = 0.0658	1.475 ± 0.02	1.429 ± 0.019
x2 = 0.1256	1.445 ± 0.019	1.398 ± 0.019
x2 = 0.1989	1.411 ± 0.019	1.362 ± 0.018
x2 = 0.2531	1.388 ± 0.019	1.338 ± 0.018
x2 = 0.3331	1.358 ± 0.018	1.305 ± 0.018
x2 = 0.4074	1.332 ± 0.018	1.279 ± 0.018
x2 = 0.4755	1.309 ± 0.018	1.254 ± 0.017
x2 = 0.5265	1.293 ± 0.018	1.237 ± 0.017
x2 = 0.6121	1.268 ± 0.018	1.21 ± 0.017
x2 = 0.6923	1.249 ± 0.017	1.187 ± 0.017
x2 = 0.7625	1.229 ± 0.017	1.167 ± 0.017
x2 = 0.8156	1.217 ± 0.017	1.155 ± 0.017
x2 = 0.8625	1.208 ± 0.017	1.144 ± 0.016

C=CCN=C=S + CCNc1ccccc1
viscosity [mPa·s], 101 kPa
Details	x1 = 0.2366	x1 = 0.4021	x1 = 0.4673	x1 = 0.5	x1 = 0.5346	x1 = 0.6032	x1 = 0.7385
298.15 K	5.955 ± 0.16	18.81 ± 0.51	37.55 ± 0.99	48.24 ± 1.3	29.45 ± 0.8	7.747 ± 0.23	2.277 ± 0.064
323.15 K	2.83 ± 0.076	6.28 ± 0.19	9.92 ± 0.34	11.98 ± 0.43	8.399 ± 0.28	3.234 ± 0.088	1.313 ± 0.034

NCc1ccccc1 + COc1ccccc1
303.15 K, 101 kPa
Details	viscosity [mPa·s]
x1 = 0.1	0.939 ± 0.02
x1 = 0.2	0.975 ± 0.021
x1 = 0.3	1.016 ± 0.022
x1 = 0.3999	1.061 ± 0.023
x1 = 0.4999	1.11 ± 0.024
x1 = 0.5999	1.163 ± 0.025
x1 = 0.7	1.22 ± 0.026
x1 = 0.8	1.281 ± 0.027
x1 = 0.9	1.346 ± 0.029

C=CCc1ccc(O)c(OC)c1 + CCCCCOC(C)=O
298.15 K, 101 kPa
Details	viscosity [mPa·s]
x1 = 0.1	0.698 ± 0.0091
x1 = 0.162	1.11 ± 0.014

CCC(=O)c1ccccc1 + COCCO
viscosity [mPa·s], 101 kPa
Details	x1 = 0.0624	x1 = 0.1302	x1 = 0.2041	x1 = 0.2852	x1 = 0.3744	x1 = 0.4731	x1 = 0.5827	x1 = 0.7054	x1 = 0.8434
303.15 K	1.568 ± 0.064	1.562 ± 0.064	1.557 ± 0.064	1.551 ± 0.063	1.545 ± 0.063	1.54 ± 0.063	1.534 ± 0.063	1.529 ± 0.063	1.523 ± 0.063
308.15 K	1.394 ± 0.057	1.398 ± 0.057	1.403 ± 0.057	1.408 ± 0.058	1.414 ± 0.058	1.422 ± 0.058	1.431 ± 0.059	1.442 ± 0.06	1.454 ± 0.06
313.15 K	1.234 ± 0.05	1.246 ± 0.051	1.259 ± 0.051	1.274 ± 0.052	1.292 ± 0.053	1.312 ± 0.054	1.334 ± 0.055	1.359 ± 0.056	1.388 ± 0.058
318.15 K	1.108 ± 0.045	1.125 ± 0.046	1.145 ± 0.047	1.167 ± 0.048	1.192 ± 0.049	1.22 ± 0.05	1.251 ± 0.051	1.287 ± 0.053	1.328 ± 0.055

O=CN1CCOCC1 + Brc1ccccc1
viscosity [mPa·s], 101 kPa
Details	x1 = 0.1046	x1 = 0.2081	x1 = 0.3106	x1 = 0.412	x1 = 0.5124	x1 = 0.6119	x1 = 0.7103	x1 = 0.8078	x1 = 0.9044
303.15 K	1.051 ± 0.033	1.188 ± 0.037	1.392 ± 0.043	1.666 ± 0.051	2.029 ± 0.061	2.502 ± 0.074	3.141 ± 0.092	3.952 ± 0.11	5.052 ± 0.14
308.15 K	1.002 ± 0.032	1.119 ± 0.035	1.297 ± 0.04	1.538 ± 0.047	1.858 ± 0.056	2.274 ± 0.067	2.809 ± 0.082	3.511 ± 0.1	4.419 ± 0.13
313.15 K	0.953 ± 0.031	1.057 ± 0.033	1.22 ± 0.038	1.442 ± 0.044	1.727 ± 0.052	2.105 ± 0.062	2.585 ± 0.076	3.211 ± 0.093	4.012 ± 0.11

C=CCN=C=S + CCN(CC)c1ccccc1
303.15 K, 101 kPa
Details	viscosity [mPa·s]
x1 = 0.25	1.248 ± 0.033
x1 = 0.5	1.007 ± 0.027
x1 = 0.7	0.857 ± 0.023
x1 = 0.75	0.822 ± 0.022
x1 = 0.8	0.785 ± 0.021

CCCCCCCCCCCO + CCCCCCCCO
viscosity [mPa·s]
Details	293.15 K	298.15 K	308.15 K	318.15 K
101 kPa, x2 = 0.1003	–	13.35 ± 0.38	–	–
101 kPa, x2 = 0.6998	10.95 ± 0.31	–	–	–
101.8 kPa, x2 = 0.1273	–	13.25 ± 0.43	9.151 ± 0.4	6.474 ± 0.36
101.8 kPa, x2 = 0.3622	–	11.61 ± 0.41	8.096 ± 0.36	5.781 ± 0.34
101.8 kPa, x2 = 0.5698	–	10.24 ± 0.4	7.208 ± 0.36	5.187 ± 0.34
101.8 kPa, x2 = 0.756	–	9.094 ± 0.42	6.447 ± 0.36	4.673 ± 0.34
101.8 kPa, x2 = 0.9212	–	7.658 ± 0.44	5.5 ± 0.36	4.027 ± 0.34

CC(C)NC(C)C + CCCCCCCCCCO
viscosity [mPa·s], 101 kPa
Details	298.15 K	303.15 K	308.15 K
x1 = 0.0531	9.942 ± 0.089	8.148 ± 0.081	6.888 ± 0.076
x1 = 0.1065	8.911 ± 0.084	7.421 ± 0.078	6.317 ± 0.074
x1 = 0.1557	8.093 ± 0.081	6.67 ± 0.075	5.66 ± 0.072
x1 = 0.2072	7.186 ± 0.077	5.835 ± 0.072	4.947 ± 0.07
x1 = 0.2506	6.335 ± 0.074	5.168 ± 0.07	4.413 ± 0.068
x1 = 0.3127	5.184 ± 0.07	4.271 ± 0.067	3.777 ± 0.066
x1 = 0.4084	3.737 ± 0.066	3.133 ± 0.064	2.732 ± 0.063
x1 = 0.5054	2.653 ± 0.063	2.228 ± 0.062	2.059 ± 0.062
x1 = 0.6066	1.752 ± 0.061	1.522 ± 0.061	1.375 ± 0.061
x1 = 0.7056	1.183 ± 0.061	1.059 ± 0.061	0.956 ± 0.06
x1 = 0.8036	0.838 ± 0.06	0.75 ± 0.06	0.702 ± 0.06
x1 = 0.853	0.689 ± 0.06	0.628 ± 0.06	0.587 ± 0.06
x1 = 0.9073	0.531 ± 0.06	0.494 ± 0.06	0.467 ± 0.06
x1 = 0.9521	0.459 ± 0.06	0.43 ± 0.06	0.358 ± 0.06

CC(C)NC(C)C + CC(C)O
viscosity [mPa·s], 100 kPa
Details	298.15 K	303.15 K	308.15 K
x1 = 0.0499	1.789 ± 0.055	1.565 ± 0.048	1.397 ± 0.043
x1 = 0.1033	1.565 ± 0.048	1.393 ± 0.043	1.253 ± 0.038
x1 = 0.1405	1.437 ± 0.044	1.28 ± 0.039	1.153 ± 0.035
x1 = 0.2062	1.245 ± 0.038	1.108 ± 0.034	1.004 ± 0.031
x1 = 0.2498	1.123 ± 0.034	1.012 ± 0.031	0.922 ± 0.028
x1 = 0.303	1.003 ± 0.031	0.904 ± 0.028	0.825 ± 0.025
x1 = 0.4121	0.809 ± 0.025	0.735 ± 0.023	0.677 ± 0.021
x1 = 0.4955	0.698 ± 0.022	0.639 ± 0.02	0.593 ± 0.018
x1 = 0.5984	0.592 ± 0.018	0.551 ± 0.017	0.513 ± 0.016
x1 = 0.6974	0.52 ± 0.016	0.498 ± 0.015	0.466 ± 0.014
x1 = 0.7902	0.468 ± 0.015	0.447 ± 0.014	0.421 ± 0.013
x1 = 0.8632	0.434 ± 0.013	0.419 ± 0.013	0.398 ± 0.012
x1 = 0.9067	0.412 ± 0.013	0.401 ± 0.012	0.382 ± 0.012
x1 = 0.9459	0.397 ± 0.012	0.388 ± 0.012	0.3694 ± 0.011
